# Reference: patent US9951063B2, “8-(piperazin-1-yl)-1,2,3,4-tetrahydro-isoquinoline derivatives” (IDORSIA PHARMACEUTICALS LTD, priority 2014, dated 2018)
# pIC50: −log10 of the molar value.
# Biological target: human CXCR3A (Homo sapiens (Human), UniProt P49682)
# Assay: FLIPR assay (inhibition of CXCL10-induced calcium signal)
# Assay type: cell-based
# Details: engineered CHO-K1 cells expressing human CXCR3A coupled to Galpha(16); Fluo-4-AM; CXCL10 agonist 20 nM; mean values where determined several times
# Procedure: The bioactivity of compounds is tested in a fluorometric imaging plate reader (FLIPR: Molecular Devices) using engineered CHO-K1 cells expressing the human CXCR3A (GenBank: AY242128) coupled to a G protein (Galpha(16)). Cells are plated the day prior to bioassay in F12 medium supplemented with 10% FBS and G418 and hygromycin antibiotics to maintain recombinant selection. At the day of bioassay, cells are washed and dye loaded for one hour with Fluo-4-AM (Invitrogen) in Hanks Balanced Salt Solution (Invitrogen), buffered with 20 mM Hepes at pH 7.4 and sodium bicarbonate (0.038%), containing 5 mM probenecid. This buffer, but lacking the dye and containing probenecid at a concentration of 2.5 mM, is also used for washing steps (wash buffer); or lacking both dye and probenecid but supplemented with 0.1% BSA for compound dilution steps (dilution buffer). Cells are washed free of excess dye and 60 microliter of wash buffer is added. Stock solutions of test compounds are made up at a concentration of 10 mM in DMSO, and serially diluted in dilution buffer to concentrations required for inhibition dose response curves. After a 10 minute incubation period at 37° C., 10 microliters of each compound dilution are transferred from a compound plate to the plate containing the recombinant cells in the FLIPR instrument according to the manufacturer's instructions. Following basal readings, 10 microliter CXCL10 agonist at a concentration of 20 nM (from Peprotech) is added, again using the FLIPR instrument. Changes in fluorescence are monitored before and after addition of the test compounds. Emission peak values above base level after CXCL10 addition are exported after base line subtraction.
# The calculated IC50 values may fluctuate depending on the daily assay performance. Fluctuations of this kind are known to those skilled in the art. In the case where IC50 values have been determined several times for the same compound, mean values are given.
# Sequence of human CXCR3A (P49682 whole entry): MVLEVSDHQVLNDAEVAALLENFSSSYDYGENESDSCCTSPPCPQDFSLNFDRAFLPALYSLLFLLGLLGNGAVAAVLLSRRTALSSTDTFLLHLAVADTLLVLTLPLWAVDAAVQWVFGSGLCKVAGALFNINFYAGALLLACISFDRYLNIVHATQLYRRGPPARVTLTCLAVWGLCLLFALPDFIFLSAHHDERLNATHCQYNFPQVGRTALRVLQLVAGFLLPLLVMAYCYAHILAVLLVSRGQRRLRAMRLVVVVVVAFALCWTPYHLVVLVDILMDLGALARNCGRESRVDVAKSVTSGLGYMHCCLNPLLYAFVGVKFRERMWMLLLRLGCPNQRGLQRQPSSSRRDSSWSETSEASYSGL
row,SMILES,pIC50
1,"CCc1csc(N2CCc3c(C(F)(F)F)ccc(N4CCN(C(=O)Cn5nc(C)cc5C)[C@H](C)C4)c3C2)n1 [Example 3, 2-(3,5-Dimethyl-pyrazol-1-yl)-1-{(R)-4-[2-(4-ethyl-thiazol-2-yl)-5-trifluoromethyl-1,2,3,4-tetrahydro-isoquinolin-8-yl]-2-methyl-piperazin-1-yl}-ethanone]",7.82
2,"Cc1cc(C)n(CC(=O)N2CCN(c3ccc(C(F)(F)F)c4c3CN(c3nc(C(C)(C)C)cs3)CC4)C[C@H]2C)n1 [Example 4, 1-{(R)-4-[2-(4-tert.-Butyl-thiazol-2-yl)-5-trifluoromethyl-1,2,3,4-tetrahydro-isoquinolin-8-yl]-2-methyl-piperazin-1-yl}-2-(3,5-dimethyl-pyrazol-1-yl)-ethanone]",7.69
3,"Cc1cc(C)n(CC(=O)N2CCN(c3ccc(C(F)(F)F)c4c3CN(c3nc(-c5ccccn5)cs3)CC4)C[C@H]2C)n1 [Example 5, 2-(3,5-Dimethyl-pyrazol-1-yl)-1-{(R)-2-methyl-4-[2-(4-pyridin-2-yl-thiazol-2-yl)-5-trifluoromethyl-1,2,3,4-tetrahydro-isoquinolin-8-yl]-piperazin-1-yl}-ethanone]",7.96
4,"Cc1cc(C)n(CC(=O)N2CCN(c3ccc(C(F)(F)F)c4c3CN(c3ncc(Cl)s3)CC4)C[C@H]2C)n1 [Example 6, 1-{(R)-4-[2-(5-Chloro-thiazol-2-yl)-5-trifluoromethyl-1,2,3,4-tetrahydro-isoquinolin-8-yl]-2-methyl-piperazin-1-yl}-2-(3,5-dimethyl-pyrazol-1-yl)-ethanone]",7.74
5,"Cc1cc(C)n(CC(=O)N2CCN(c3ccc(C(F)(F)F)c4c3CN(c3nc(C#N)cs3)CC4)C[C@H]2C)n1 [Example 7, 2-(8-{(R)-4-[2-(3,5-Dimethyl-pyrazol-1-yl)-acetyl]-3-methyl-piperazin-1-yl}-5-trifluoromethyl-3,4-dihydro-1H-isoquinolin-2-yl)-thiazole-4-carbonitrile]",7.53
6,"Cc1ccc2nc(N3CCc4c(C(F)(F)F)ccc(N5CCN(C(=O)Cn6nc(C)cc6C)[C@H](C)C5)c4C3)sc2c1 [Example 9, 2-(3,5-Dimethyl-pyrazol-1-yl)-1-{(R)-2-methyl-4-[2-(6-methyl-benzothiazol-2-yl)-5-trifluoromethyl-1,2,3,4-tetrahydro-isoquinolin-8-yl]-piperazin-1-yl}-ethanone]",7.86
7,"Cc1cc(C)n(CC(=O)N2CCN(c3ccc(C(F)(F)F)c4c3CN(c3ncc(Br)cn3)CC4)C[C@H]2C)n1 [Example 14, 1-{(R)-4-[2-(5-Bromo-pyrimidin-2-yl)-5-trifluoromethyl-1,2,3,4-tetrahydro-isoquinolin-8-yl]-2-methyl-piperazin-1-yl}-2-(3,5-dimethyl-pyrazol-1-yl)-ethanone]",7.56
8,"COc1cccc(N2CCc3c(C(F)(F)F)ccc(N4CCN(C(=O)Cn5cnc6cccnc65)[C@H](C)C4)c3C2)c1 [Example 18, 2-Imidazo[4,5-b]pyridin-3-yl-1-{(R)-4-[2-(3-methoxy-phenyl)-5-trifluoromethyl-1,2,3,4-tetrahydro-isoquinolin-8-yl]-2-methyl-piperazin-1-yl}-ethanone]",7.89
9,"COc1nc(OC)nc(N2CCc3c(C(F)(F)F)ccc(N4CCN(C(=O)Cn5cnc6cccnc65)[C@H](C)C4)c3C2)n1 [Example 19, 1-{(R)-4-[2-(4,6-Dimethoxy-[1,3,5]triazin-2-yl)-5-trifluoromethyl-1,2,3,4-tetrahydro-isoquinolin-8-yl]-2-methyl-piperazin-1-yl}-2-imidazo[4,5-b]pyridin-3-yl-ethanone]",7.93
10,"C[C@@H]1CN(c2ccc(C(F)(F)F)c3c2CN(c2ccc(Cl)cc2)CC3)CCN1C(=O)Cn1cnc2cccnc21 [Example 21, 1-{(R)-4-[2-(4-Chloro-phenyl)-5-trifluoromethyl-1,2,3,4-tetrahydro-isoquinolin-8-yl]-2-methyl-piperazin-1-yl}-2-imidazo[4,5-b]pyridin-3-yl-ethanone]",7.52
11,"COc1ncc(N2CCc3c(C(F)(F)F)ccc(N4CCN(C(=O)Cn5nc(C)nc5C)[C@H](C)C4)c3C2)cn1 [Example 23, 2-(3,5-Dimethyl-[1,2,4]triazol-1-yl)-1-{(R)-4-[2-(2-methoxy-pyrimidin-5-yl)-5-trifluoromethyl-1,2,3,4-tetrahydro-isoquinolin-8-yl]-2-methyl-piperazin-1-yl}-ethanone]",7.77

# Further molecules by rising pIC50, results first:
row,pIC50,SMILES
1,7.97,"CCCc1ncc(N2CCc3c(C(F)(F)F)ccc(N4CCN(C(=O)Cn5cnc6cccnc65)[C@H](C)C4)c3C2)cn1 [Example 22, 2-Imidazo[4,5-b]pyridin-3-yl-1-{(R)-2-methyl-4-[2-(2-propyl-pyrimidin-5-yl)-5-trifluoromethyl-1,2,3,4-tetrahydro-isoquinolin-8-yl]-piperazin-1-yl}-ethanone]"
2,8.02,"Cc1cc(C)n(CC(=O)N2CCN(c3ccc(C(F)(F)F)c4c3CN(c3nc5ccc(F)cc5s3)CC4)C[C@H]2C)n1 [Example 10, 2-(3,5-Dimethyl-pyrazol-1-yl)-1-{(R)-4-[2-(6-fluoro-benzothiazol-2-yl)-5-trifluoromethyl-1,2,3,4-tetrahydro-isoquinolin-8-yl]-2-methyl-piperazin-1-yl}-ethanone]"
3,8.03,"Cc1cc(C)n(CC(=O)N2CCN(c3ccc(C(F)(F)F)c4c3CN(c3nc5ccccc5o3)CC4)C[C@H]2C)n1 [Example 12, 1-[(R)-4-(2-Benzooxazol-2-yl-5-trifluoromethyl-1,2,3,4-tetrahydro-isoquinolin-8-yl)-2-methyl-piperazin-1-yl]-2-(3,5-dimethyl-pyrazol-1-yl)-ethanone]"
4,8.04,"COc1ncc(N2CCc3c(C(F)(F)F)ccc(N4CCN(C(=O)Cn5cnc6cccnc65)[C@H](C)C4)c3C2)cn1 [Example 17, 2-Imidazo[4,5-b]pyridin-3-yl-1-{(R)-4-[2-(2-methoxy-pyrimidin-5-yl)-5-trifluoromethyl-1,2,3,4-tetrahydro-isoquinolin-8-yl]-2-methyl-piperazin-1-yl}-ethanone]"
5,8.05,"Cc1cc(C)n(CC(=O)N2CCN(c3ccc(C(F)(F)F)c4c3CN(c3ncc(C#N)s3)CC4)C[C@H]2C)n1 [Example 8, 2-(8-{(R)-4-[2-(3,5-Dimethyl-pyrazol-1-yl)-acetyl]-3-methyl-piperazin-1-yl}-5-trifluoromethyl-3,4-dihydro-1H-isoquinolin-2-yl)-thiazole-5-carbonitrile]"
6,8.07,"Cc1cc(C)n(CC(=O)N2CCN(c3ccc(C(F)(F)F)c4c3CN(c3cnc(N(C)C)nc3)CC4)C[C@H]2C)n1 [Example 13, 1-{(R)-4-[2-(2-Dimethylamino-pyrimidin-5-yl)-5-trifluoromethyl-1,2,3,4-tetrahydro-isoquinolin-8-yl]-2-methyl-piperazin-1-yl}-2-(3,5-dimethyl-pyrazol-1-yl)-ethanone]"
7,8.11,"CCOc1ncc(N2CCc3c(C(F)(F)F)ccc(N4CCN(C(=O)Cn5cnc6cccnc65)[C@H](C)C4)c3C2)cn1 [Example 20, 1-{(R)-4-[2-(2-Ethoxy-pyrimidin-5-yl)-5-trifluoromethyl-1,2,3,4-tetrahydro-isoquinolin-8-yl]-2-methyl-piperazin-1-yl}-2-imidazo[4,5-b]pyridin-3-yl-ethanone]"
8,8.18,"Cc1cc(C)n(CC(=O)N2CCN(c3ccc(C(F)(F)F)c4c3CN(c3nc5ccc(C#N)cc5s3)CC4)C[C@H]2C)n1 [Example 11, 2-(8-{(R)-4-[2-(3,5-Dimethyl-pyrazol-1-yl)-acetyl]-3-methyl-piperazin-1-yl}-5-trifluoromethyl-3,4-dihydro-1H-isoquinolin-2-yl)-benzothiazole-6-carbonitrile]"
9,8.21,"C[C@@H]1CN(c2ccc(C(F)(F)F)c3c2CN(c2ccccc2)CC3)CCN1C(=O)Cn1cnc2cccnc21 [Example 16, 2-Imidazo[4,5-b]pyridin-3-yl-1-[(R)-2-methyl-4-(2-phenyl-5-trifluoromethyl-1,2,3,4-tetrahydro-isoquinolin-8-yl)-piperazin-1-yl]-ethanone]"
10,8.22,"Cc1cc(C)n(CC(=O)N2CCN(c3ccc(C(F)(F)F)c4c3CN(c3nc(C(F)(F)F)cs3)CC4)C[C@H]2C)n1 [Example 2, 2-(3,5-Dimethyl-pyrazol-1-yl)-1-{(R)-2-methyl-4-[5-trifluoromethyl-2-(4-trifluoromethyl-thiazol-2-yl)-1,2,3,4-tetrahydro-isoquinolin-8-yl]-piperazin-1-yl}-ethanone]"
11,8.35,"Cc1cc(C)n(CC(=O)N2CCN(c3ccc(C(F)(F)F)c4c3CN(c3ncc(Cn5cccn5)s3)CC4)C[C@H]2C)n1 [Example 1, 2-(3,5-Dimethyl-pyrazol-1-yl)-1-{(R)-2-methyl-4-[2-(5-pyrazol-1-ylmethyl-thiazol-2-yl)-5-trifluoromethyl-1,2,3,4-tetrahydro-isoquinolin-8-yl]-piperazin-1-yl}-ethanone]"
12,8.45,"Cc1cc(C)n(CC(=O)N2CCN(c3ccc(C(F)(F)F)c4c3CN(c3cnc(C5CC5)nc3)CC4)C[C@H]2C)n1 [Example 15, 1-{(R)-4-[2-(2-Cyclopropyl-pyrimidin-5-yl)-5-trifluoromethyl-1,2,3,4-tetrahydro-isoquinolin-8-yl]-2-methyl-piperazin-1-yl}-2-(3,5-dimethyl-pyrazol-1-yl)-ethanone]"
